According to the supplement of paper PMC4862054:

System: HDQ-P1
Experiment: normalised response (% of control), CellTox Green; higher = less cell death (100 = DMSO, 0 = benzethonium chloride kill control)
Conditions: incubation time: 72 h
Summary of the method: (§1)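 Normalised signals at single concentrations make up the values. They come from breast cancer cell lines seeded (20 µl suspension) into 384-well plates with compound at 5 concentrations in 10-fold steps over a compound-specific 10,000-fold range, incubated 72 h, and read for CellTox Green fluorescence then CellTiter-Glo luminescence. Each plate was normalised to 0.1 % DMSO (100) and a positive kill control (0).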

Q: With `CC(C)(C)c1cc(NC(=O)Nc2ccc(-c3cn4c(n3)sc3cc(OCCN5CCOCC5)ccc34)cc2)no1` [Quizartinib] (100 nM) as the compound, how does the normalised response read?
A: 103%

Q: `O=c1[nH]c(=O)n([C@H]2C[C@H](O)[C@@H](CO)O2)cc1F` [Floxuridine] (10000 nM) was tested. Which normalised response did it give?
A: 66.2%

Q: Which normalised response does the source give for `Cn1cnc2c(F)c(Nc3ccc(Br)cc3F)c(C(=O)NOCCO)cc21` [MEK-162] (1000 nM) here?
A: 67.1%

Q: With `O=C(c1ccc(OCCN2CCCCC2)cc1)c1c(-c2ccc(O)cc2)sc2cc(O)ccc12` [Raloxifene] (1000 nM) as the compound, how does the normalised response read?
A: 105%

Q: How did the normalised response turn out when `O=c1[nH]c(=O)n([C@H]2C[C@H](O)[C@@H](CO)O2)cc1F` [Floxuridine] (1000 nM) was run?
A: 98%

Q: How did the normalised response turn out when `CS(=O)(=O)CCNCc1ccc(-c2ccc3ncnc(Nc4ccc(OCc5cccc(F)c5)c(Cl)c4)c3c2)o1` [Lapatinib] (1000 nM) was run?
A: 96.8%

System: DU-4475
Experiment: as above
Conditions: incubation time: 72 h
Summary of the method: as §1

Q: `COc1cccc2c1C(=O)c1c(O)c3c(c(O)c1C2=O)C[C@@](O)(C(C)=O)C[C@@H]3O[C@H]1C[C@H](N)[C@H](O)[C@H](C)O1` [Daunorubicin] (1000 nM) was tested. Which normalised response did it give?
A: 104%

Q: With `Cn1c(=O)c(F)c(Nc2ccc(I)cc2F)c2c(=O)n(C[C@@H](O)CO)cnc21` [TAK-733] (100 nM) as the compound, how does the normalised response read?
A: 74%

Q: `C[C@@H]1C=C2C(=O)O[C@@H]3CC[C@H](C1)[C@]23O` [Galiellalactone] (50000 nM) was tested. Which normalised response did it give?
A: 108%

Q: For `C[C@@H]1C=C2C(=O)O[C@@H]3CC[C@H](C1)[C@]23O` [Galiellalactone] (5000 nM), which normalised response is on record?
A: 106%

Q: With `COc1ccc(C2=N[C@@H](c3ccc(Cl)cc3)[C@@H](c3ccc(Cl)cc3)N2C(=O)N2CCNC(=O)C2)c(OC(C)C)c1` [Nutlin-3] (1000 nM) as the compound, how does the normalised response read?
A: 100%

Q: How did the normalised response turn out when `COC1=CC(c2cc3ccccc3[nH]2)=N/C1=C\c1[nH]c(C)cc1C` [Obatoclax] (10000 nM) was run?
A: 101%

Q: For `CN1CCN(c2ccc3nc(-c4c(N)c5c(F)cccc5[nH]c4=O)[nH]c3c2)CC1` [Dovitinib] (10000 nM), which normalised response is on record?
A: 101%

Q: Which normalised response does the source give for `COc1ccc(C2=N[C@@H](c3ccc(Cl)cc3)[C@@H](c3ccc(Cl)cc3)N2C(=O)N2CCNC(=O)C2)c(OC(C)C)c1` [Nutlin-3] (10000 nM) here?
A: 91%

Q: How did the normalised response turn out when `COC1=C2C[C@@H](C)C[C@H](OC)[C@H](O)[C@@H](C)/C=C(\C)[C@H](OC(N)=O)[C@@H](OC)/C=C\C=C(/C)C(=O)NC(=CC1=O)C2=O` [Geldanamycin] (1000 nM) was run?
A: 99.2%

Q: How did the normalised response turn out when `CC(C)(C)c1cc(NC(=O)Nc2ccc(-c3cn4c(n3)sc3cc(OCCN5CCOCC5)ccc34)cc2)no1` [Quizartinib] (1000 nM) was run?
A: 102%

Q: How did the normalised response turn out when `COc1cccc2c1C(=O)c1c(O)c3c(c(O)c1C2=O)C[C@@](O)(C(C)=O)C[C@@H]3O[C@H]1C[C@H](N)[C@H](O)[C@H](C)O1` [Daunorubicin] (100 nM) was run?
A: 100%

Q: With `O=c1[nH]cc(F)c(=O)[nH]1` [Fluorouracil] (10000 nM) as the compound, how does the normalised response read?
A: 99.2%

Q: With `O=C(c1ccc(OCCN2CCCCC2)cc1)c1c(-c2ccc(O)cc2)sc2cc(O)ccc12` [Raloxifene] (10000 nM) as the compound, how does the normalised response read?
A: 99.6%

Q: With `CC(C)(C)c1cc(NC(=O)Nc2ccc(-c3cn4c(n3)sc3cc(OCCN5CCOCC5)ccc34)cc2)no1` [Quizartinib] (100 nM) as the compound, how does the normalised response read?
A: 101%

Q: For `CCS(=O)(=O)c1cccc(-c2cc(C(=O)NC3CCN(C)CC3)c(C)c3[nH]c4ncc(C)cc4c23)c1` [TAK-901] (100 nM), which normalised response is on record?
A: 100%

Q: How did the normalised response turn out when `CS(=O)(=O)OCCCCOS(C)(=O)=O` [Busulfan] (100000 nM) was run?
A: 97.4%

Q: For `O=c1[nH]c(=O)n([C@H]2C[C@H](O)[C@@H](CO)O2)cc1F` [Floxuridine] (10000 nM), which normalised response is on record?
A: 103%

Q: For `Cn1cnc2c(F)c(Nc3ccc(Br)cc3F)c(C(=O)NOCCO)cc21` [MEK-162] (1000 nM), which normalised response is on record?
A: 68.7%

Q: For `O=C(c1ccc(OCCN2CCCCC2)cc1)c1c(-c2ccc(O)cc2)sc2cc(O)ccc12` [Raloxifene] (1000 nM), which normalised response is on record?
A: 104%

Q: With `O=c1[nH]c(=O)n([C@H]2C[C@H](O)[C@@H](CO)O2)cc1F` [Floxuridine] (1000 nM) as the compound, how does the normalised response read?
A: 106%

Q: `CCCC(CCC)C(=O)O` [Valproic acid] (10000 nM) was tested. Which normalised response did it give?
A: 104%

Q: With `CS(=O)(=O)CCNCc1ccc(-c2ccc3ncnc(Nc4ccc(OCc5cccc(F)c5)c(Cl)c4)c3c2)o1` [Lapatinib] (1000 nM) as the compound, how does the normalised response read?
A: 100%

Q: Which normalised response does the source give for `COC1=CC(c2cc3ccccc3[nH]2)=N/C1=C\c1[nH]c(C)cc1C` [Obatoclax] (1000 nM) here?
A: 98.1%

System: MFM-223
Experiment: as above
Conditions: incubation time: 72 h
Summary of the method: as §1

Q: For `COc1cccc2c1C(=O)c1c(O)c3c(c(O)c1C2=O)C[C@@](O)(C(C)=O)C[C@@H]3O[C@H]1C[C@H](N)[C@H](O)[C@H](C)O1` [Daunorubicin] (1000 nM), which normalised response is on record?
A: 101%

Q: For `Cn1c(=O)c(F)c(Nc2ccc(I)cc2F)c2c(=O)n(C[C@@H](O)CO)cnc21` [TAK-733] (100 nM), which normalised response is on record?
A: 74.9%

Q: How did the normalised response turn out when `C[C@@H]1C=C2C(=O)O[C@@H]3CC[C@H](C1)[C@]23O` [Galiellalactone] (50000 nM) was run?
A: 106%

Q: `C[C@@H]1C=C2C(=O)O[C@@H]3CC[C@H](C1)[C@]23O` [Galiellalactone] (5000 nM) was tested. Which normalised response did it give?
A: 101%

Q: For `COc1ccc(C2=N[C@@H](c3ccc(Cl)cc3)[C@@H](c3ccc(Cl)cc3)N2C(=O)N2CCNC(=O)C2)c(OC(C)C)c1` [Nutlin-3] (1000 nM), which normalised response is on record?
A: 100%

Q: How did the normalised response turn out when `COC1=CC(c2cc3ccccc3[nH]2)=N/C1=C\c1[nH]c(C)cc1C` [Obatoclax] (10000 nM) was run?
A: 96.7%

Q: Which normalised response does the source give for `CN1CCN(c2ccc3nc(-c4c(N)c5c(F)cccc5[nH]c4=O)[nH]c3c2)CC1` [Dovitinib] (10000 nM) here?
A: 99.1%

Q: For `COc1ccc(C2=N[C@@H](c3ccc(Cl)cc3)[C@@H](c3ccc(Cl)cc3)N2C(=O)N2CCNC(=O)C2)c(OC(C)C)c1` [Nutlin-3] (10000 nM), which normalised response is on record?
A: 96.4%

Q: `COC1=C2C[C@@H](C)C[C@H](OC)[C@H](O)[C@@H](C)/C=C(\C)[C@H](OC(N)=O)[C@@H](OC)/C=C\C=C(/C)C(=O)NC(=CC1=O)C2=O` [Geldanamycin] (1000 nM) was tested. Which normalised response did it give?
A: 90.7%

Q: For `CC(C)(C)c1cc(NC(=O)Nc2ccc(-c3cn4c(n3)sc3cc(OCCN5CCOCC5)ccc34)cc2)no1` [Quizartinib] (1000 nM), which normalised response is on record?
A: 59.1%

Q: For `COc1cccc2c1C(=O)c1c(O)c3c(c(O)c1C2=O)C[C@@](O)(C(C)=O)C[C@@H]3O[C@H]1C[C@H](N)[C@H](O)[C@H](C)O1` [Daunorubicin] (100 nM), which normalised response is on record?
A: 99.6%

Q: Which normalised response does the source give for `O=c1[nH]cc(F)c(=O)[nH]1` [Fluorouracil] (10000 nM) here?
A: 103%

Q: `O=C(c1ccc(OCCN2CCCCC2)cc1)c1c(-c2ccc(O)cc2)sc2cc(O)ccc12` [Raloxifene] (10000 nM) was tested. Which normalised response did it give?
A: 102%

Q: With `CC(C)(C)c1cc(NC(=O)Nc2ccc(-c3cn4c(n3)sc3cc(OCCN5CCOCC5)ccc34)cc2)no1` [Quizartinib] (100 nM) as the compound, how does the normalised response read?
A: 102%

Q: How did the normalised response turn out when `CCS(=O)(=O)c1cccc(-c2cc(C(=O)NC3CCN(C)CC3)c(C)c3[nH]c4ncc(C)cc4c23)c1` [TAK-901] (100 nM) was run?
A: 94%

Q: `CS(=O)(=O)OCCCCOS(C)(=O)=O` [Busulfan] (100000 nM) was tested. Which normalised response did it give?
A: 84.1%

Q: Which normalised response does the source give for `O=c1[nH]c(=O)n([C@H]2C[C@H](O)[C@@H](CO)O2)cc1F` [Floxuridine] (1000 nM) here?
A: 102%

Q: How did the normalised response turn out when `CCCC(CCC)C(=O)O` [Valproic acid] (10000 nM) was run?
A: 101%

Q: Which normalised response does the source give for `CS(=O)(=O)CCNCc1ccc(-c2ccc3ncnc(Nc4ccc(OCc5cccc(F)c5)c(Cl)c4)c3c2)o1` [Lapatinib] (1000 nM) here?
A: 104%

Q: With `COC1=CC(c2cc3ccccc3[nH]2)=N/C1=C\c1[nH]c(C)cc1C` [Obatoclax] (1000 nM) as the compound, how does the normalised response read?
A: 102%
